From patent US11401278B2, “Macrocyclic indole derivatives” (The Broad Institute, Inc., priority 2017, dated 2022) come the findings set out here.

Structures are written as SMILES. Counter-ions that a name gives are not always drawn. Like-named read-outs stand apart in the source and are kept apart here.

One may read the IC50 as the midpoint of a concentration-inhibition curve.

One data set deals with MCL-1 (Homo sapiens (Human), UniProt Q07820, K194A/K197A/R201A). As to the kind of experiment: Protein-protein interaction assay MCL-1/Noxa BH3 peptide (MCL-1 assay, TR-FRET). The format is binding. The settings on record: MBP-MCL-1 / Noxa BH3 peptide, median. Summed up:
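MBP-fused MCL-1 (aa 173-329, 1 nM) was pre-incubated with compound for 10 min at 22° C, then biotinylated Noxa BH3 peptide (1 nM) was added with anti-MBP-Eu cryptate and streptavidin-XL665. Incubation was 1 h at 22° C, then overnight at 4° C, in Tris pH 7 buffer. The 665/620 nm ratio over 11 concentrations (0.1 nM-20 μM) gave IC50 by 4-parameter fit.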

In another data set the test system is SUDHL5. The experiment in a line: Induction of cytotoxicity (Assay 6), SUDHL5. The settings on record: read-out: Cytotox SUDHL5 [M] (median) IC50, CellTiter-Glo, 5 hours, SUDHL5. (In general: ATP-based viability assays read luminescence as a measure of living cells.)

Chain of MCL-1 (Q07820 whole entry K194A/K197A/R201A, looked up, the tested form may be a part): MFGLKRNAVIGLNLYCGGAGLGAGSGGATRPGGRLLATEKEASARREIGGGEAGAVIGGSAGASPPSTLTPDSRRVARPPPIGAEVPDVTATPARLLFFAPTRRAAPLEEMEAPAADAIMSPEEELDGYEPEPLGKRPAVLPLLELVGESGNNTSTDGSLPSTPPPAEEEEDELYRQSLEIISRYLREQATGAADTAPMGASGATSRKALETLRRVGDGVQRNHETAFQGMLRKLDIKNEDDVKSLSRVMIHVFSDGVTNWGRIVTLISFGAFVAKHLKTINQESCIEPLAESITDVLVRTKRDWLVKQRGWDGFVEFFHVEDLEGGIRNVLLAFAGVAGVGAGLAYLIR

Turning to `Cc1c2c(nn1C)CN(CCN1CCOCC1)S(=O)(=O)CCCn1c(C(=O)O)c(CCCOc3cccc4ccccc34)c3cccc-2c31` (racemic) [Example 1, (rac)-2,3-Dimethyl-14-[2-(morpholin-4-yl)ethyl]-7-{3-[(naphthalen-1-yl)oxy]propyl}-13,13-dioxo-10,11,12,13,14,15-hexahydro-2H-13λ^6-pyrazolo[3′,4′:4,5][1,2,8]thiadiazacycloundecino-[6,7,8-hi]indole-8-carboxylic acid], the IC50 at MCL-1 was found to be 6.2 nM; in the data set on SUDHL5 (Homo sapiens, SU-DHL-5, 5 h) it was 6.7e-06 M.
For `CCc1c2c(nn1C)CN(C)S(=O)(=O)CCCn1c(C(=O)O)c(CCCOc3cccc4c3CCCC4)c3ccc(Cl)c-2c31` [Example 23, (rac)-13-Chloro-12-ethyl-8,11-dimethyl-1-(3-((5,6,7,8-tetrahydronaphthalen-1-yl)oxy)propyl)-4,5,6,8,9,11-hexahydropyrazolo[3′,4′:4,5][1,2,8]thiadiazacycloundecino[6,7,8-hi]indole-2-carboxylic acid 7,7-dioxide], in that order: 3.3 nM and 1.7e-06 M.
Taken in the same sequence, the figures for `CCc1c2c(nn1C)CN(CC)S(=O)(=O)CCCn1c(C(=O)O)c(CCCOc3cccc4cc(F)ccc34)c3ccc(Cl)c-2c31` (racemic) [Example 56, (rac)-4-chloro-3,14-diethyl-7-{3-[(6-fluoro-1-naphthyl)oxy]propyl}-2-methyl-11,12,14,15-tetrahydro-2H,10H-pyrazolo[3′,4′:4,5][1,2,8]thiadiazacycloundecino[6,7,8-hi]indole-8-carboxylic acid 13,13-dioxide] were 2.1 nM and 2.8e-07 M.
In the case of `CCc1c2c(nn1C)CN(C1CC1)S(=O)(=O)CCCn1c(C(=O)O)c(CCCOc3cccc4cc(F)ccc34)c3ccc(Cl)c-2c31` (single isomer, unassigned; enantiomer 1) [Example 54, (−)-4-chloro-14-cyclopropyl-3-ethyl-7-{3-[(6-fluoronaphthalen-1-yl)oxy]propyl}-2-methyl-13,13-dioxo-10,11,12,13,14,15-hexahydro-2H-13lambda^6-pyrazolo[3′,4′:4,5][1,2,8]thiadiazacycloundecino[6,7,8-hi]indole-8-carboxylic acid N-ethylethanamine Salt (Enantiomer 1)], the IC50 against MCL-1 was found to be 0.64 nM; in the data set on SUDHL5 it was 3.6e-07 M.
As for `Cc1c2c(nn1C)CN(C)S(=O)(=O)CCCn1c(C(=O)O)c(CCCOc3cccc4ccccc34)c3ccc(F)c-2c31` (racemic) [Example 26, (rac)-13-Fluoro-8,11,12-trimethyl-1-(3-(naphthalen-1-yloxy)propyl)-5,6,9,11-tetrahydro-4H,8H-pyrazolo[3′,4′:4,5][1]thia[2,8]diazacycloundecino[6,7,8-hi]indole-2-carboxylic acid 7,7-dioxide], the IC50 at MCL-1 amounted to 3.6 nM; with SUDHL5 (Homo sapiens, SU-DHL-5, 5 h), 1.8e-06 M.
As to `CCc1c2c(nn1C)C(CCC1CCOCC1)N(C)S(=O)(=O)CCCn1c(C(=O)O)c(CCCOc3cccc4cc(F)ccc34)c3ccc(Cl)c-2c31` (racemic) [Example 59, (rac)-4-chloro-3-ethyl-7-{3-[(6-fluoro-1-naphthyl)oxy]propyl}-2,14-dimethyl-15-[2-(tetrahydro-2H-pyran-4-yl)ethyl]-11,12,14,15-tetrahydro-2H,10H-pyrazolo[3′,4′:4,5][1,2,8]thiadiazacycloundecino[6,7,8-hi]indole-8-carboxylic acid 13,13-dioxide (Racemate 2)], the IC50 on MCL-1 is 1.9 nM; with SUDHL5, 5.9e-08 M.
Regarding `Cc1c2c(nn1C)CNS(=O)(=O)CCCn1c(C(=O)O)c(CCCOc3cccc4cc(F)ccc34)c3ccc(Cl)c-2c31` (single isomer, unassigned; enantiomer 2) [Example 52, 4-chloro-7-{3-[(6-fluoronaphthalen-1-yl)oxy]propyl}-2,3-dimethyl-13,13-dioxo-10,11,12,13,14,15-hexahydro-2H-13lambda^6-pyrazolo[3′,4′:4,5][1,2,8]thiadiazacycloundecino[6,7,8-hi]indole-8-carboxylic acid (Enantiomer 2)], the figures for the IC50 on MCL-1 and in the data set on SUDHL5 were 23 nM and 1.7e-05 M, respectively.
In the case of `CCc1c2c(nn1C)CN(C)S(=O)(=O)CCCn1c(C(=O)O)c(CCCOc3cccc4c3CCCC4)c3ccc(F)c-2c31` (racemic) [Example 34, (rac)-12-Ethyl-13-fluoro-8,11-dimethyl-1-(3-((5,6,7,8-tetrahydronaphthalen-1-yl)oxy)propyl)-5,6,9,11-tetrahydro-4H,8H-pyrazolo[3′,4′:4,5][1]thia[2,8]diazacycloundecino[6,7,8-hi]indole-2-carboxylic acid 7,7-dioxide], the IC50 against MCL-1 amounted to 3.2 nM; with SUDHL5 (Homo sapiens, SU-DHL-5, 5 h), 1.4e-06 M.
As to `Cc1c2c(nn1C)C(CCN1CCOCC1)N(C)S(=O)(=O)CCCn1c(C(=O)O)c(CCCOc3cccc4cc(F)ccc34)c3ccc(Cl)c-2c31` (racemic) [Example 65, (rac)-4-chloro-7-{3-[(6-fluoronaphthalen-1-yl)oxy]propyl}-2,3,14-trimethyl-15-(rac)-[2-(morpholin-4-yl)ethyl]-13,13-dioxo-10,11,12,13,14,15-hexahydro-2H-13lambda^6-pyrazolo[3′,4′:4,5][1,2,8]thiadiazacycloundecino[6,7,8-hi]indole-8-carboxylic acid (Mixture of Stereoisomers)], the IC50 on MCL-1 is 0.94 nM; in the data set on SUDHL5, 5.8e-08 M.
As for `CCc1c2c(nn1C)CN(CC)S(=O)(=O)CCCn1c(C(=O)O)c(CCCOc3cccc4cc(F)ccc34)c3ccc(Cl)c-2c31` (single isomer, unassigned; enantiomer 1) [Example 57, (+)-4-chloro-3,14-diethyl-7-{3-[(6-fluoronaphthalen-1-yl)oxy]propyl}-2-methyl-13,13-dioxo-10,11,12,13,14,15-hexahydro-2H-13lambda^6-pyrazolo[3′,4′:4,5][1,2,8]thiadiazacycloundecino[6,7,8-hi]indole-8-carboxylic acid N-ethylethanamine Salt (Enantiomer 1)], the IC50 on MCL-1 was 0.48 nM; with SUDHL5 it was 1.1e-07 M.
For `Cc1c2c(nn1C)C(CCN1CCOCC1)N(C)S(=O)(=O)CCCn1c(C(=O)O)c(CCCOc3cccc4cc(F)ccc34)c3ccc(Cl)c-2c31` (racemic) [Example 48, (rac)-4-chloro-7-{3-[(6-fluoro-1-naphthyl)oxy]propyl}-2,3,14-trimethyl-15-(rac)-[2-(morpholin-4-yl)ethyl]-11,12,14,15-tetrahydro-2H,10H-pyrazolo[3′,4′:4,5][1,2,8]thiadiazacycloundecino[6,7,8-hi]indole-8-carboxylic acid 13,13-dioxide (Mixture of Stereoisomers)], in that order: 0.93 nM and 1.4e-08 M.
As for `Cc1c2c(nn1C)CN(C1CC1)S(=O)(=O)CCCn1c(C(=O)O)c(CCCOc3cccc4cc(F)ccc34)c3ccc(Cl)c-2c31` (single isomer, unassigned; enantiomer 2) [Example 43, (+)-4-chloro-14-cyclopropyl-7-{3-[(6-fluoro-1-naphthyl)oxy]propyl}-2,3-dimethyl-11,12,14,15-tetrahydro-2H,10H-pyrazolo[3′,4′:4,5][1,2,8]thiadiazacycloundecino[6,7,8-hi]indole-8-carboxylic acid 13,13-dioxide N-diethylamine salt (Enantiomer 2)], the IC50 at MCL-1 is 6.2 nM; with SUDHL5 it was 9.6e-06 M.
As to `Cc1c2c(nn1C)CN(C)S(=O)(=O)CCCn1c(C(=O)O)c(CCCOc3cccc4cc(F)ccc34)c3ccc(F)c-2c31` (single isomer, unassigned; enantiomer 2) [Example 39, (+)-4-fluoro-7-{3-[(6-fluoronaphthalen-1-yl)oxy]propyl}-2,3,14-trimethyl-13,13-dioxo-10,11,12,13,14,15-hexahydro-2H-13lambda^6-pyrazolo[3′,4′:4,5][1,2,8]thiadiazacycloundecino-[6,7,8-hi]indole-8-carboxylic acid (Enantiomer 2)], the IC50 against MCL-1 was 0.89 nM; with SUDHL5, 4.5e-07 M.
For `Cc1c2c(nn1C)CN(C1CC1)S(=O)(=O)CCCn1c(C(=O)O)c(CCCOc3cccc4cc(F)ccc34)c3ccc(Cl)c-2c31` (single isomer, unassigned; enantiomer 1) [Example 42, (−)-4-chloro-14-cyclopropyl-7-{3-[(6-fluoro-1-naphthyl)oxy]propyl}-2,3-dimethyl-11,12,14,15-tetrahydro-2H,10H-pyrazolo[3′,4′:4,5][1,2,8]thiadiazacycloundecino[6,7,8-hi]indole-8-carboxylic acid 13,13-dioxide N-diethylamine salt (Enantiomer 1)], in that order: 0.34 nM and 3e-07 M.
With `CCc1c2c(nn1C)CN(C)S(=O)(=O)CCCn1c(C(=O)O)c(CCCOc3cccc4ccccc34)c3ccc(F)c-2c31` (racemic) [Example 31, (rac)-12-Ethyl-13-fluoro-8,11-dimethyl-1-(3-(naphthalen-1-yloxy)propyl)-5,6,9,11-tetrahydro-4H,8H-pyrazolo[3′,4′:4,5][1]thia[2,8]diazacycloundecino[6,7,8-hi]indole-2-carboxylic acid 7,7-dioxide], the IC50 at MCL-1 worked out at 3.6 nM; in the data set with SUDHL5 (Homo sapiens, SU-DHL-5, 5 h) it was 9.3e-07 M.
Take `Cc1c2c(nn1C)CN(C)S(=O)(=O)CCCn1c(C(=O)O)c(CCCOc3ccc(F)c4ccccc34)c3ccc(F)c-2c31` [Example 30, (rac)-13-Fluoro-1-(34(4-fluoronaphthalen-1-yl)oxy)propyl)-8,11,12-trimethyl-5,6,9,11-tetrahydro-4H,8H-pyrazolo[3′,4′:4,5][1]thia[2,8]diazacycloundecino[6,7,8-hi]indole-2-carboxylic acid 7,7-dioxide]: the IC50 against MCL-1 was found to be 5.1 nM; with SUDHL5 (Homo sapiens, SU-DHL-5, 5 h) it was 1.7e-06 M.
